Assay results from ChEMBL document CHEMBL5518168, “Tumor-homing peptide iRGD-conjugate enhances tumor accumulation of camptothecin for colon cancer therapy” (Eur J Med Chem, 2024).
Calls of active or inactive are those of the source. The rule behind the calls is not given here.

Experiments:
[1] = Drug uptake in human SW480 cells assessed as increase in blue fluorescence at 30 uM incubated for 1 hr by DRAQ5 staining based confocal microscopy analysis; assay type: ADME, cell-based; conditions: sw480, 1 h
HT-29 [2] = assay: Cytotoxicity against human HT-29 cells assessed as reduction in cell viability at 10 to 50 uM incubated for 48 hrs by MTT assay; assay type: functional, cell-based; conditions: dose 10-50 µM
HT-29 [3] = assay: Cytotoxicity against human HT-29 cells assessed as reduction in cell viability at greater than 0.078 uM incubated for 48 hrs by MTT assay; assay type: functional, cell-based
HT-29 [4] = assay: Cytotoxicity against human HT-29 cells assessed as cell viability at 25 uM incubated for 48 hrs by MTT assay; assay type: functional; conditions: read-out: Activity
SW480 [5] = assay: Cytotoxicity against human SW480 cells assessed as cell viability at 25 uM incubated for 48 hrs by MTT assay; assay type: functional; conditions: read-out: Activity
HT-29 [6] = assay: Cytotoxicity against human HT-29 cells assessed as reduction in cell viability incubated for 48 hrs by MTT assay; assay type: functional, cell-based; conditions: HT-29, 48 h
SW480 [7] = assay: Cytotoxicity against human SW480 cells assessed as reduction in cell viability incubated for 48 hrs by MTT assay; assay type: functional, cell-based; conditions: SW480, 48 h
HT-29 [8] = assay: Potency index, ratio of CPT IC50 to test compound IC50 for cytotoxicity against human HT-29 cells; assay type: functional
SW480 [9] = assay: Potency index, ratio of CPT IC50 to test compound IC50 for cytotoxicity against human SW480 cells; assay type: functional
THP-1 = assay: Cytotoxicity against human THP-1 cells assessed as reduction in cell viability incubated for 48 hrs by MTT assay; assay type: toxicity, cell-based; conditions: thp-1, 48 h
CCD-18Co = assay: Cytotoxicity against human CCD-18Co cells assessed as reduction in cell viability incubated for 48 hrs by MTT assay; assay type: toxicity, cell-based
[10] = Stability in human plasma assessed as drug hydrolysis after 15 mins by HPLC analysis; assay type: ADME, cell-free; conditions: read-out: Drug degradation
[11] = Stability in human plasma assessed as drug hydrolysis after 5 hrs by HPLC analysis; assay type: ADME, cell-free; conditions: read-out: Drug degradation
[12] = Stability in human plasma assessed as parent compound remaining after 18 hrs by HPLC analysis; assay type: ADME, cell-free; conditions: read-out: Stability
SW480 [13] = assay: Antitumor activity against human SW480 cells xenografted in BALB/c mouse assessed as increase in body weight at 0.1 mg/kg, iv administered once every 2 days and measured after 12 days; assay type: functional, organism-based; conditions: time 12.0 day
SW480 [14] = assay: Antitumor activity against human SW480 cells xenografted in BALB/c mouse assessed as reduction in tumor volume at 0.1 mg/kg, iv administered once every 2 days and measured on day 8; assay type: functional, organism-based; conditions: time 8.0 day
SW480 [15] = assay: Antitumor activity against human SW480 cells xenografted in BALB/c mouse assessed as reduction in tumor volume at 0.1 mg/kg, iv administered once every 2 days and measured on day 18; assay type: functional; set-up: scale not given: the % may be the effect or the level left; conditions: time 18 day
SW480 [16] = assay: Antitumor activity against human SW480 cells xenografted in BALB/c mouse assessed as tumor inhibition rate at 0.1 mg/kg, iv administered once every 2 days for 18 days; assay type: functional; set-up: scale not given: the % may be the effect or the level left; conditions: time 18 day
SW480 [17] = assay: Antitumor activity against human SW480 cells xenografted in BALB/c mouse assessed as tumor burden at 0.1 mg/kg, iv administered once every 2 days for 18 days (reference value: 1.88%); assay type: functional; conditions: time 18 day
SW480 [18] = assay: Antitumor activity against human SW480 cells xenografted in BALB/c mouse assessed as tumor growth inhibition at 0.1 mg/kg, iv administered once every 2 days for 18 days; assay type: functional, organism-based; conditions: time 18.0 day
SW480 [19] = assay: Antitumor activity against human SW480 cells xenografted in BALB/c mouse assessed as decrease in Ki67 expression at 0.1 mg/kg, iv administered once every 2 days for 18 days by immunohistochemical analysis; assay type: functional, organism-based; conditions: time 18.0 day
[20] = Drug distribution in BALB/c mouse tumor xenografted with human A549 cells at 22.23 mg/kg, iv measured after 24 hrs by HPLC analysis; assay type: ADME, organism-based, Neoplasm; conditions: in vivo
[21] = Drug distribution in BALB/c mouse spleen xenografted with human A549 cells at 22.23 mg/kg, iv measured after 24 hrs by HPLC analysis; assay type: ADME, organism-based; conditions: in vivo
[22] = Drug distribution in BALB/c mouse heart xenografted with human A549 cells at 22.23 mg/kg, iv measured after 24 hrs by HPLC analysis; assay type: ADME, organism-based; conditions: in vivo
[23] = Drug distribution in BALB/c mouse tumor xenografted with human A549 cells at 22.23 mg/kg, sc measured after 24 hrs by HPLC analysis; assay type: ADME, organism-based, Neoplasm; conditions: in vivo
[24] = Drug distribution in BALB/c mouse lung xenografted with human A549 cells at 22.23 mg/kg, sc measured after 24 hrs by HPLC analysis; assay type: ADME, organism-based; conditions: in vivo
[25] = Drug distribution in BALB/c mouse heart xenografted with human A549 cells at 22.23 mg/kg, sc measured after 24 hrs by HPLC analysis; assay type: ADME, organism-based; conditions: in vivo
SW480 [26] = assay: Antitumor activity against human SW480 cells xenografted in BALB/c mouse assessed as fold decrease in cell viability by measuring Ki67 positive cells at 0.1 mg/kg, iv administered once every 2 days for 18 days by immunohistochemical analysis relative to CPT; assay type: functional; conditions: time 18 day
SW480 [27] = assay: Antitumor activity against human SW480 cells xenografted in BALB/c mouse assessed as fold decrease in cell viability by measuring Ki67 positive cells at 0.1 mg/kg, iv administered once every 2 days for 18 days by immunohistochemical analysis relative to control; assay type: functional; conditions: time 18 day
SW480 [28] = assay: Antitumor activity against human SW480 cells xenografted in BALB/c mouse assessed as increase in body weight at 0.019 mg/kg, iv administered once every 2 days and measured after 12 days; assay type: functional, organism-based; conditions: time 12.0 day
SW480 [29] = assay: Antitumor activity against human SW480 cells xenografted in BALB/c mouse assessed as reduction in tumor volume at 0.019 mg/kg, iv administered once every 2 days and measured on day 18; assay type: functional; set-up: scale not given: the % may be the effect or the level left; conditions: time 18 day
SW480 [30] = assay: Antitumor activity against human SW480 cells xenografted in BALB/c mouse assessed as tumor inhibition rate at 0.019 mg/kg, iv administered once every 2 days for 18 days; assay type: functional; set-up: scale not given: the % may be the effect or the level left; conditions: time 18 day
SW480 [31] = assay: Antitumor activity against human SW480 cells xenografted in BALB/c mouse assessed as tumor burden at 0.019 mg/kg, iv administered once every 2 days for 18 days (reference value: 1.88%); assay type: functional; conditions: time 18 day
[32] = Drug distribution in BALB/c mouse spleen xenografted with human A549 cells at 2.5 mg/kg, iv measured after 24 hrs by HPLC analysis; assay type: ADME, organism-based; conditions: in vivo
[33] = Drug distribution in BALB/c mouse lung xenografted with human A549 cells at 2.5 mg/kg, iv measured after 24 hrs by HPLC analysis; assay type: ADME, organism-based; conditions: in vivo
[34] = Drug distribution in BALB/c mouse heart xenografted with human A549 cells at 2.5 mg/kg, iv measured after 24 hrs by HPLC analysis; assay type: ADME, organism-based; conditions: in vivo
[35] = Drug distribution in BALB/c mouse spleen xenografted with human A549 cells at 2.5 mg/kg, sc measured after 24 hrs by HPLC analysis; assay type: ADME, organism-based; conditions: in vivo
[36] = Drug distribution in BALB/c mouse lung xenografted with human A549 cells at 2.5 mg/kg, sc measured after 24 hrs by HPLC analysis; assay type: ADME, organism-based; conditions: in vivo
[37] = Drug distribution in BALB/c mouse heart xenografted with human A549 cells at 2.5 mg/kg, sc measured after 24 hrs by HPLC analysis; assay type: ADME, organism-based; conditions: in vivo

Q: With `CC[C@@]1(OC(=O)CCCOCCOCCONC(=O)CCN2C(=O)CC(SC[C@H](NC(C)=O)C(=O)N[C@H]3CSSC[C@@H](C(=O)O)NC(=O)[C@H](CC(=O)O)NC(=O)[C@@H]4CCCN4C(=O)CNC(=O)[C@H](CCCCN)NC(=O)[C@H](CC(=O)O)NC(=O)CNC(=O)[C@H](CCCNC(=N)N)NC3=O)C2=O)C(=O)OCc2c1cc1n(c2=O)Cc2cc3ccccc3nc2-1` (stereo partly drawn) as the molecule, how does the Drug uptake [1] read?
A: Active

Q: And the Activity (HT-29 [2])?
A: Active

Q: And the Activity (HT-29 [3])?
A: Active

Q: And the viability at 25 µM (HT-29 [4])?
A: 16.3%

Q: And the viability at 25 µM (SW480 [5])?
A: 22.3%

Q: What about the IC50 (HT-29 [6]) of the same molecule?
A: 0.35 µM

Q: What about the IC50 (SW480 [7]) of the same molecule?
A: 0.32 µM

Q: And the “Ratio IC50” value (HT-29 [8])?
A: 6.7

Q: And the “Ratio IC50” value (SW480 [9])?
A: 24

Q: And the Activity (THP-1)?
A: Non-Toxic

Q: What about the Activity (CCD-18Co) of the same molecule?
A: Non-Toxic

Q: What about the metabolised at 0.25 h [10] of the same molecule?
A: 1.4%

Q: What about the metabolised at 5 h [11] of the same molecule?
A: 15.5%

Q: And the remaining at 18 h [12]?
A: 76.4%

Q: And the Activity (SW480 [13])?
A: Active

Q: And the Activity (SW480 [14])?
A: Active

Q: What about the Activity (SW480 [15]) of the same molecule?
A: 39.7%

Q: And the Activity (SW480 [16])?
A: 75%

Q: What about the Activity (SW480 [17]) of the same molecule?
A: 1.44%

Q: What about the Activity (SW480 [18]) of the same molecule?
A: Active

Q: What about the Activity (SW480 [19]) of the same molecule?
A: Active

Q: And the Drug uptake [20]?
A: Active

Q: What about the Drug uptake [21] of the same molecule?
A: Active

Q: What about the Drug uptake [22] of the same molecule?
A: Active

Q: And the Drug uptake [23]?
A: Active

Q: And the Drug uptake [24]?
A: Active

Q: And the Drug uptake [25]?
A: Active

Q: What about the “fold change (FC)” value (SW480 [26]) of the same molecule?
A: 6.4

Q: And the “fold change (FC)” value (SW480 [27])?
A: 10.5

Q: With `CC[C@@]1(O)C(=O)OCc2c1cc1n(c2=O)Cc2cc3ccccc3nc2-1` [CAMPTOTHECIN] as the molecule, how does the viability at 25 µM (HT-29 [4]) read?
A: 32.4%

Q: And the viability at 25 µM (SW480 [5])?
A: 29.5%

Q: And the IC50 (HT-29 [6])?
A: 2.35 µM

Q: And the IC50 (SW480 [7])?
A: 8.56 µM

Q: What about the Activity (SW480 [28]) of the same molecule?
A: inactive

Q: And the Activity (SW480 [29])?
A: 6.8%

Q: And the Activity (SW480 [30])?
A: 56%

Q: And the Activity (SW480 [31])?
A: 1.59%

Q: What about the Drug uptake [32] of the same molecule?
A: Active

Q: What about the Drug uptake [33] of the same molecule?
A: Active

Q: And the Drug uptake [34]?
A: Active

Q: What about the Drug uptake [35] of the same molecule?
A: Active

Q: And the Drug uptake [36]?
A: Active

Q: And the Drug uptake [37]?
A: Active
